Earlier results, collected in US9683008B2, “Synthetic bile acid compositions and methods” (Kythera Biopharmaceuticals, Inc., priority 2010, dated 2017).

Legend:
[1] = neutral pH
[2] = biological target: albumin (Homo sapiens, UniProt P02768); settings: 0.4 mg/mL deoxycholate (comparable to the fasting state), in the presence of 26 mg/mL of albumin
Chain of albumin (P02768 25-609): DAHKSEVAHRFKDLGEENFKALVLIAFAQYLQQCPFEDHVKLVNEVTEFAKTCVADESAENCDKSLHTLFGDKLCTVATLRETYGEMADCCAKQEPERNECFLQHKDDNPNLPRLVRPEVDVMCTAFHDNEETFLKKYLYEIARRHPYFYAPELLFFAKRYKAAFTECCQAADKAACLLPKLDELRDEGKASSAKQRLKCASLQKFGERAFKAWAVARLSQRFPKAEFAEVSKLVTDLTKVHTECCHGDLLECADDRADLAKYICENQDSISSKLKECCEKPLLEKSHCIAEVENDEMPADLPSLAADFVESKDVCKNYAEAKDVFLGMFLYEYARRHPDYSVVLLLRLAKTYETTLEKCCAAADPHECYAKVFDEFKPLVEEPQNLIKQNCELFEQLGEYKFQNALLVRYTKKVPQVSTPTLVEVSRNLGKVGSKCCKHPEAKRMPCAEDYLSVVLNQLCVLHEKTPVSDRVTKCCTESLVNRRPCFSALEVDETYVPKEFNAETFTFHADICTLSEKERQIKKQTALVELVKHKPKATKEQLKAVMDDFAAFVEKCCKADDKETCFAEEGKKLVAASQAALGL

In the case of `C[C@H](CCC(=O)[O-])[C@H]1CC[C@H]2[C@@H]3CC[C@@H]4C[C@H](O)CC[C@]4(C)[C@H]3C[C@H](O)[C@]12C.[Na+]` [sodium deoxycholate], the solubility in acetone (acetone, compared with alcohol) is given as “even less soluble”, the “solubility in glacial acetic acid” value (glacial acetic acid, compared with alcohol) is given as “even less soluble” and the soluble in water (water) is given as 333 mg/mL. The critical micelle concentration [1] was “approximately 2.4 mg/mL” and the bound to albumin [2] was 98%.
